Drawing on patent US11395847B2, “Acylated GLP-1/GLP-2 dual agonists” (Zealand Pharma A/S, priority 2016, dated 2022), this text covers EC50 for 5 compounds.

Like-named read-outs stand apart in the source and are kept apart here. *1 amine or outer side, *2 acyl side, *3 side chain or, on linkers, in order; H or OH if unused. Where a SMILES comes first, the peptide text is derived from it. Side-chain parts run from the residue outwards. [ ]: non-standard residue; d: D form. The star is where a group is joined. C20 diacid = O=C(O)CCCCCCCCCCCCCCCCCCC(=O)*; γGlu = O=C(O)[C@H](CCC(=O)[*:2])N[*:1]; AEEA = NCCOCCOCC(=O)O; Aib = CC(C)(N)C(=O)O

A word on the EC50: it is the midpoint of the concentration-response curve.

This experiment has as its target T1, human GLP-2 receptor (Homo sapiens, UniProt O95838, D470N).
T1 construct: expressed in transfected cells
T1 sequence (O95838 1-553 D470N): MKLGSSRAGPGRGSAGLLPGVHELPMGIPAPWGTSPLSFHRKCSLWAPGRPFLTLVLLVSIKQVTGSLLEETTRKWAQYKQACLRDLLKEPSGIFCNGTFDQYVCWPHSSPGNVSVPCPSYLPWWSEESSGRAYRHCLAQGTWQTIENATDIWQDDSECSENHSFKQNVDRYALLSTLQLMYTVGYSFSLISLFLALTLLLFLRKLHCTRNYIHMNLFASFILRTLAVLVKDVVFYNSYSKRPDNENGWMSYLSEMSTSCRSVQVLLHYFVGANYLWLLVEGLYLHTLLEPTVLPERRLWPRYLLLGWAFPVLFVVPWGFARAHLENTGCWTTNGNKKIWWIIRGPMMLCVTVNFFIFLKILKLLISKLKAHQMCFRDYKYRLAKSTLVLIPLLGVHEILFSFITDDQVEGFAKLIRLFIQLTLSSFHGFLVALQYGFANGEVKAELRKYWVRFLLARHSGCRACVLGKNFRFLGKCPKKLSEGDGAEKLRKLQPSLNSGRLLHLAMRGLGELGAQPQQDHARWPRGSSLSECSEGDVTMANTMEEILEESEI
Nature of the experiment: GLP-2 receptor potency assay (cAMP ALPHASCREEN, HEK293 cells stably expressing GLP-2 R). Type of experiment: cell-based. An excerpt: One useful in vitro assay for measuring GLP-1 and GLP-2 receptor activity is quantitation of cAMP, i.e. 3′-5′-cyclic adenosine monophosphate, which is a second messenger essential in many biological processes, and one of the most ubiquitous mechanisms for regulating cellular functions.
For subcloning into a mammalian expression vector, primers for subcloning were obtained from DNA-Technology, Risskov, Denmark. The 5′ and 3′ primers used for the PCR reaction include terminal restriction sites for cloning and the context of the 5′ primer is modified to a Kozak consensus without changing the sequence of the product encoded by the ORF. […] The generated PCR product was purified using GFX PCR and Gel band purification kit, digested with restriction enzymes and cloned into the mammalian expression vector using Rapid DNA Ligation Kit. Ligation reaction was transformed to XL10 Gold Ultracompetent cells and colonies were picked for DNA production using ENDOFREE® Plasmid maxi kit. Subsequent sequence analysis was conducted by MWG Eurofins, Germany.
HEK293 cells were transfected using the LIPOFECTAMINE® PLUS transfection method. The day before transfection, HEK293 cells were seeded in two T75 flasks at a density of 2×10^6 cells/T75 flask in cell culturing medium without antibiotics. On the day of transfection, cells were washed with 1× DPBS and medium was replaced with OPTI-MEM© to a volume of 5 mL/T75 flask before addition of LIPOFECTAMINE®-plasmid complexes were added gently and drop wise to the cells in T75 flasks and replaced with growth medium after 3 hours and again to growth medium supplemented with 500 μg/mL G418 after 24 hours. Following 4 weeks in G418 selection, clones were picked and tested in a functional GLP-2 receptor potency assay as described below.
The cAMP ALPHASCREEN® assay from Perkin Elmer was used to quantitate the cAMP response to activation of the GLP1 and GLP2 receptor, respectively. […] Data from test compounds eliciting an increase in the intracellular level of cAMP were normalized relative to the positive and negative control (vehicle) to calculate the EC50 and maximal response from the concentration response curve.
For orientation: In Alpha technology, singlet oxygen from a donor bead excites a nearby acceptor bead.

The mark [1] stands for this setting: cAMP response, HEK293 cells expressing human GLP-2 R, read-out: EC50 GLP-2.

As for `CC[C@H](C)[C@H](NC(=O)[C@H](Cc1ccccc1)NC(=O)[C@H](CC(=O)O)NC(=O)[C@H](CCCNC(=N)N)NC(=O)[C@H](C)NC(=O)[C@H](C)NC(=O)[C@H](CCC(=O)O)NC(=O)[C@H](CCCCNC(=O)CC[C@H](NC(=O)CCCCCCCCCCCCCCCCC(=O)O)C(=O)O)NC(=O)[C@H](CC(=O)O)NC(=O)[C@H](CC(C)C)NC(=O)[C@@H](NC(=O)[C@@H](NC(=O)[C@H](C)NC(=O)[C@H](CC(C)C)NC(=O)[C@H](CCC(=O)O)NC(=O)[C@H](CO)NC(=O)[C@H](CO)NC(=O)[C@H](Cc1ccccc1)NC(=O)[C@@H](NC(=O)CNC(=O)[C@H](CCC(=O)O)NC(=O)C(C)(C)NC(=O)[C@@H](N)Cc1c[nH]cn1)[C@@H](C)O)[C@@H](C)O)[C@@H](C)CC)C(=O)N[C@@H](C)C(=O)N[C@@H](Cc1c[nH]c2ccccc12)C(=O)N[C@@H](CC(C)C)C(=O)N[C@H](C(=O)N[C@@H](CCC(=O)O)C(=O)N[C@@H](Cc1c[nH]cn1)C(=O)N[C@@H](CCCCN)C(=O)N[C@H](C(=O)N[C@H](C(=O)N[C@@H](CC(=O)O)C(=O)O)[C@@H](C)O)[C@@H](C)CC)[C@@H](C)CC` [Compound 1] (HELM PEPTIDE1{H.[Aib].E.G.T.F.S.S.E.L.A.T.I.L.D.K.E.A.A.R.D.F.I.A.W.L.I.E.H.K.I.T.D}|PEPTIDE2{[O=C(O)CCCCCCCCCCCCCCCCC(=O)[*:2]].[gGlu]}$PEPTIDE1,PEPTIDE2,16:R3-2:R2$$$V2.0), the concentration giving a half-maximal response (EC50) under setting [1] came out at 350 pM.

For `CC[C@H](C)[C@H](NC(=O)[C@H](Cc1ccccc1)NC(=O)[C@H](CC(=O)O)NC(=O)[C@H](CCCNC(=N)N)NC(=O)[C@H](C)NC(=O)[C@H](C)NC(=O)[C@H](CCCCN)NC(=O)[C@H](CCCCNC(=O)CC[C@H](NC(=O)CCCCCCCCCCCCCCCCC(=O)O)C(=O)O)NC(=O)[C@H](CC(=O)O)NC(=O)[C@H](CC(C)C)NC(=O)[C@@H](NC(=O)[C@@H](NC(=O)[C@H](C)NC(=O)[C@H](CC(C)C)NC(=O)[C@H](CCC(=O)O)NC(=O)[C@H](CO)NC(=O)[C@H](CO)NC(=O)[C@H](Cc1ccccc1)NC(=O)[C@@H](NC(=O)CNC(=O)[C@H](CCC(=O)O)NC(=O)C(C)(C)NC(=O)[C@@H](N)Cc1c[nH]cn1)[C@@H](C)O)[C@@H](C)O)[C@@H](C)CC)C(=O)N[C@@H](C)C(=O)N[C@@H](Cc1c[nH]c2ccccc12)C(=O)N[C@@H](CC(C)C)C(=O)N[C@H](C(=O)N[C@@H](CCC(=O)O)C(=O)N[C@@H](Cc1c[nH]cn1)C(=O)N[C@@H](CCCCN)C(=O)N[C@H](C(=O)N[C@H](C(=O)N[C@@H](CC(=O)O)C(=O)O)[C@@H](C)O)[C@@H](C)CC)[C@@H](C)CC` [Compound 4] (HELM PEPTIDE1{H.[Aib].E.G.T.F.S.S.E.L.A.T.I.L.D.K.K.A.A.R.D.F.I.A.W.L.I.E.H.K.I.T.D}|PEPTIDE2{[O=C(O)CCCCCCCCCCCCCCCCC(=O)[*:2]].[gGlu]}$PEPTIDE1,PEPTIDE2,16:R3-2:R2$$$V2.0), the response was half-maximal at 87 pM (EC50).

As to `CC[C@H](C)[C@H](NC(=O)[C@H](Cc1ccccc1)NC(=O)[C@H](CC(=O)O)NC(=O)[C@H](CCCNC(=N)N)NC(=O)[C@H](C)NC(=O)[C@H](C)NC(=O)[C@H](CCCCN)NC(=O)[C@H](CCCCNC(=O)COCCOCCNC(=O)[C@H](CCCCN)NC(=O)[C@H](CCC(=O)O)NC(=O)[C@H](CCCCN)NC(=O)CC[C@H](NC(=O)CCCCCCCCCCCCCCCCCCC(=O)O)C(=O)O)NC(=O)[C@H](CC(=O)O)NC(=O)[C@H](CC(C)C)NC(=O)[C@@H](NC(=O)[C@@H](NC(=O)[C@H](C)NC(=O)[C@H](CC(C)C)NC(=O)[C@H](CCC(=O)O)NC(=O)[C@H](CO)NC(=O)[C@@H](NC(=O)[C@H](Cc1ccccc1)NC(=O)[C@H](CO)NC(=O)CNC(=O)[C@H](CCC(=O)O)NC(=O)C(C)(C)NC(=O)[C@@H](N)Cc1c[nH]cn1)[C@@H](C)O)[C@@H](C)O)[C@@H](C)CC)C(=O)N[C@@H](C)C(=O)N[C@@H](Cc1c[nH]c2ccccc12)C(=O)N[C@@H](CC(C)C)C(=O)N[C@H](C(=O)N[C@@H](CCC(=O)O)C(=O)N[C@@H](Cc1c[nH]cn1)C(=O)N[C@@H](CCCCN)C(=O)N[C@H](C(=O)N[C@H](C(=O)N[C@@H](CC(=O)O)C(=O)O)[C@@H](C)O)[C@@H](C)CC)[C@@H](C)CC` [Compound 59] (HELM PEPTIDE1{H.[Aib].E.G.S.F.T.S.E.L.A.T.I.L.D.K.K.A.A.R.D.F.I.A.W.L.I.E.H.K.I.T.D}|PEPTIDE2{[O=C(O)CCCCCCCCCCCCCCCCCCC(=O)[*:2]].[gGlu].K.E.K.[O=C(COCCOCCN[*:1])[*:2]]}$PEPTIDE1,PEPTIDE2,16:R3-6:R2$$$V2.0), the EC50 under setting [1] was 110 pM.

Take `CC[C@H](C)[C@H](NC(=O)[C@H](Cc1ccccc1)NC(=O)[C@H](CC(=O)O)NC(=O)[C@H](CCCCNC(=O)COCCOCCNC(=O)COCCOCCNC(=O)CC[C@H](NC(=O)CCCCCCCCCCCCCCCCCCC(=O)O)C(=O)O)NC(=O)[C@H](C)NC(=O)[C@H](C)NC(=O)[C@H](CCC(N)=O)NC(=O)[C@H](CCC(=O)O)NC(=O)[C@H](CC(=O)O)NC(=O)[C@H](CC(C)C)NC(=O)[C@@H](NC(=O)[C@@H](NC(=O)[C@H](C)NC(=O)[C@H](CC(C)C)NC(=O)[C@H](CCC(=O)O)NC(=O)[C@H](CO)NC(=O)[C@@H](NC(=O)[C@H](Cc1ccccc1)NC(=O)[C@@H](NC(=O)CNC(=O)[C@H](CCC(=O)O)NC(=O)C(C)(C)NC(=O)[C@@H](N)Cc1c[nH]cn1)[C@@H](C)O)[C@@H](C)O)[C@@H](C)O)[C@@H](C)CC)C(=O)N[C@@H](C)C(=O)N[C@@H](Cc1c[nH]c2ccccc12)C(=O)N[C@@H](CC(C)C)C(=O)N[C@H](C(=O)N[C@@H](CCC(=O)O)C(=O)N[C@@H](Cc1c[nH]cn1)C(=O)N[C@@H](CCCCN)C(=O)N[C@H](C(=O)N[C@H](C(=O)N[C@@H](CC(=O)O)C(=O)O)[C@@H](C)O)[C@@H](C)CC)[C@@H](C)CC` [Compound 46] (H-H[Aib]EGTFTSELATILDEQAAK([AEEA-AEEA-γGlu-C20 diacid])DFIAWLIEHKITD-OH): the EC50 under setting [1] is 380 pM.

Take `CC[C@H](C)[C@H](NC(=O)[C@H](Cc1ccccc1)NC(=O)[C@H](CC(=O)O)NC(=O)[C@H](CCCNC(=N)N)NC(=O)[C@H](C)NC(=O)[C@H](C)NC(=O)[C@H](CC(C)C)NC(=O)[C@H](CCCCNC(=O)CC[C@H](NC(=O)CCCCCCCCCCCCCCCCC(=O)O)C(=O)O)NC(=O)[C@H](CC(=O)O)NC(=O)[C@H](CC(C)C)NC(=O)[C@@H](NC(=O)[C@@H](NC(=O)[C@H](C)NC(=O)[C@H](CC(C)C)NC(=O)[C@H](CCC(=O)O)NC(=O)[C@H](CO)NC(=O)[C@@H](NC(=O)[C@H](Cc1ccccc1)NC(=O)[C@@H](NC(=O)CNC(=O)[C@H](CCC(=O)O)NC(=O)C(C)(C)NC(=O)[C@@H](N)Cc1c[nH]cn1)[C@@H](C)O)[C@@H](C)O)[C@@H](C)O)[C@@H](C)CC)C(=O)N[C@@H](C)C(=O)N[C@@H](Cc1c[nH]c2ccccc12)C(=O)N[C@@H](CC(C)C)C(=O)N[C@H](C(=O)N[C@@H](CCC(=O)O)C(=O)N[C@@H](Cc1c[nH]cn1)C(=O)N[C@@H](CCCCN)C(=O)N[C@H](C(=O)N[C@H](C(=O)N[C@@H](CC(=O)O)C(=O)O)[C@@H](C)O)[C@@H](C)CC)[C@@H](C)CC` [Compound 12] (HELM PEPTIDE1{H.[Aib].E.G.T.F.T.S.E.L.A.T.I.L.D.K.L.A.A.R.D.F.I.A.W.L.I.E.H.K.I.T.D}|PEPTIDE2{[O=C(O)CCCCCCCCCCCCCCCCC(=O)[*:2]].[gGlu]}$PEPTIDE1,PEPTIDE2,16:R3-2:R2$$$V2.0): the EC50 under setting [1] was determined as 110 pM.
